Reference: patent US20150105252A1, “SUBSTITUTED PYRAZOLES AS HERBICIDES” (E I DU PONT DE NEMOURS AND COMPANY, priority 2013, published 2015)

Tests used:
[1] = system: nutsedge, yellow; test: Test C preemergence; type: in vivo, Cyperus esculentus; conditions: for Nutsedge, Yellow plant response rating / Plant response rating, Nutsedge, Yellow: preemergence; for Plant response rating, Nutsedge, Yellow: 125 g ai/ha, scale 0 to 100, 0 = no effect, 100 = complete control
Procedure, shortened: (§1)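 Seeds were sown in a loam soil–sand blend and sprayed preemergence with compounds formulated in a non-phytotoxic solvent mixture containing surfactant. Postemergence plants, grown in peat/vermiculite medium to 2–18 cm (1- to 4-leaf stage), received the same formulation. After 13 to 15 days in a greenhouse, injury was rated visually against controls (0 = no effect, 100 = complete control).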

[2] = system: crabgrass, large; test: Test C preemergence; type: in vivo, Digitaria sanguinalis; conditions: for Crabgrass, Large plant response rating / Plant response rating, Crabgrass, Large: preemergence; for Plant response rating, Crabgrass, Large: 125 g ai/ha, scale 0 to 100, 0 = no effect, 100 = complete control
Procedure, shortened: as §1

[3] = system: ryegrass, Italian; test: Test C preemergence; type: in vivo, Lolium multiflorum; conditions: for Ryegrass, Italian plant response rating / Plant response rating, Ryegrass, Italian: preemergence; for Plant response rating, Ryegrass, Italian: 125 g ai/ha, scale 0 to 100, 0 = no effect, 100 = complete control
Procedure, shortened: as §1

[4] = system: pigweed; test: Test C preemergence; type: in vivo, Amaranthus retroflexus; conditions: for Pigweed plant response rating / Plant response rating, Pigweed: preemergence; for Plant response rating, Pigweed: 125 g ai/ha, scale 0 to 100, 0 = no effect, 100 = complete control
Procedure, shortened: as §1

[5] = system: sedge, umbrella; test: Test B flood; type: in vivo, Cyperus difformis; conditions: 250 g ai/ha, visual rating on 0 to 100 scale (0 no effect, 100 complete control), 13 to 15 days
Procedure, shortened: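 Response scored visually, 0–100 relative to controls, 13–15 days after the compound was applied into paddy water; plants were at the 2-leaf stage in pots kept flooded to 3 cm.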

[6] = system: morningglory; test: Test A postemergence; type: in vivo, Ipomoea spp.
Procedure, shortened: (§2)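 Both timings tested concurrently in loam/sand soil: preemergence by directed soil spray, postemergence on plants of 2–10 cm at the one- to two-leaf stage. Greenhouse holding period was approximately 10 days before visual injury assessment (0–100, 0 = no effect).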

[7] = system: morningglory; test: Test C preemergence; type: in vivo, Ipomoea coccinea; conditions: for Morningglory plant response rating / Plant response rating, Morningglory: preemergence; for Plant response rating, Morningglory: 125 g ai/ha, scale 0 to 100, 0 = no effect, 100 = complete control
Procedure, shortened: as §1

[8] = system: velvetleaf; test: Test A postemergence; type: in vivo, Abutilon theophrasti
Procedure, shortened: as §2

[9] = system: morningglory; test: Test A preemergence; type: in vivo, Ipomoea spp.; conditions: preemergence
Procedure, shortened: as §2

[10] = system: galium; test: Test C preemergence; type: in vivo, Galium aparine; conditions: for Galium plant response rating / Plant response rating, Galium: preemergence; for Plant response rating, Galium: 125 g ai/ha, scale 0 to 100, 0 = no effect, 100 = complete control
Procedure, shortened: as §1

[11] = system: foxtail, giant; test: Test A postemergence; type: in vivo, Setaria faberii
Procedure, shortened: as §2

[12] = system: soybean; test: Test C preemergence; type: in vivo, Glycine max; conditions: for Soybean plant response rating / Plant response rating, Soybean: preemergence; for Plant response rating, Soybean: 125 g ai/ha, scale 0 to 100, 0 = no effect, 100 = complete control
Procedure, shortened: as §1

[13] = system: pigweed; test: Test A preemergence; type: in vivo, Amaranthus retroflexus; conditions: preemergence
Procedure, shortened: as §2

[14] = system: corn; test: Test A postemergence; type: in vivo, Zea mays
Procedure, shortened: as §2

[15] = 31 g ai/ha, visual rating, scale 0 to 100 (0 no effect, 100 complete control), 13 to 15 days
[16] = 62 g ai/ha, scale 0 to 100 (0 no effect, 100 complete control), 13 to 15 days
[17] = Postemergence, 500 g ai/ha, 0 to 100 scale (0 no effect, 100 complete control)
[18] = postemergence, 125 g ai/ha, about 10 days, visual rating on 0 to 100 scale (0 no effect, 100 complete control)
[19] = 125 g ai/ha, visual injury, 0 to 100 scale, approx. 10 days
[20] = 500 g ai/ha, visual injury after approx. 10 days, 0 to 100 scale (0 no effect, 100 complete control)
[21] = 250 g ai/ha, scale 0 to 100, 0 is no effect, 100 is complete control
[22] = 125 g ai/ha, visual injury approx. 10 days after treatment

CCCNC(=O)c1cc(CC)n(Cc2ccnc(OC(F)F)c2)n1 [Compound 132]
Plant response rating (scale of 0 to 100), Nutsedge, Yellow ([1]; Preemergence, 250 g ai/ha): 70
Nutsedge, Yellow plant response rating [1, 15]: 35
Nutsedge, Yellow plant response rating [1, 16]: 55
Plant response rating, Nutsedge, Yellow ([1]; 13 to 15 days): 80
Plant response rating (scale of 0 to 100), Crabgrass, Large ([2]; Preemergence, 250 g ai/ha): 100
Crabgrass, Large plant response rating [2, 15]: 98
Crabgrass, Large plant response rating [2, 16]: 100
Plant response rating, Crabgrass, Large ([2]; 13 to 15 days): 100
Plant response rating (scale of 0 to 100), Ryegrass, Italian ([3]; Preemergence, 250 g ai/ha): 98
Ryegrass, Italian plant response rating [3, 15]: 15
Ryegrass, Italian plant response rating [3, 16]: 85
Plant response rating, Ryegrass, Italian ([3]; 13 to 15 days): 98
Plant response rating (scale of 0 to 100), Pigweed ([4]; Preemergence, 250 g ai/ha): 100
Pigweed plant response rating [4, 15]: 100
Pigweed plant response rating [4, 16]: 100
Plant response rating, Pigweed ([4]; 13 to 15 days): 100
Plant response rating, Sedge, Umbrella [5]: 90
Morningglory plant response rating [6, 17]: 100
Morningglory plant response rating [6, 18]: 90
Plant response rating (scale of 0 to 100), Morningglory ([7]; Preemergence, 250 g ai/ha): 100
Morningglory plant response rating [7, 15]: 60
Morningglory plant response rating [7, 16]: 100
Plant response rating, Morningglory ([7]; 13 to 15 days): 100
Velvetleaf plant response rating [8, 17]: 100
Velvetleaf plant response rating [8, 18]: 100
Morningglory plant response rating [9, 19]: 100
Morningglory plant response rating [9, 20]: 100
Plant response rating (scale of 0 to 100), Galium ([10]; Preemergence, 250 g ai/ha): 100
Galium plant response rating [10, 15]: 98
Galium plant response rating [10, 16]: 100
Plant response rating, Galium ([10]; 13 to 15 days): 100
Foxtail, Giant plant response rating [11, 17]: 90
Foxtail, Giant plant response rating [11, 18]: 80
Plant response rating (scale of 0 to 100), Soybean ([12]; Preemergence, 250 g ai/ha): 95
Soybean plant response rating [12, 15]: 35
Soybean plant response rating [12, 16]: 75
Plant response rating, Soybean ([12]; 13 to 15 days): 90
Pigweed plant response rating [13, 19]: 100
Pigweed plant response rating [13, 20]: 100
Corn plant response rating [14, 17]: 90
Corn plant response rating [14, 18]: 70

CCCNC(=O)c1cc(CCCl)n(Cc2ccnc(C(F)(F)F)c2)n1 [Compound 145]
Nutsedge, Yellow plant response rating [1, 15]: 10
Nutsedge, Yellow plant response rating [1, 16]: 75
Plant response rating, Nutsedge, Yellow ([1]; 13 to 15 days): 60
Nutsedge, Yellow plant response rating [1, 21]: 90
Crabgrass, Large plant response rating [2, 15]: 100
Plant response rating, Crabgrass, Large ([2]; 13 to 15 days): 100
Crabgrass, Large plant response rating [2, 21]: 100
Ryegrass, Italian plant response rating [3, 15]: 5
Ryegrass, Italian plant response rating [3, 16]: 45
Plant response rating, Ryegrass, Italian ([3]; 13 to 15 days): 85
Ryegrass, Italian plant response rating [3, 21]: 90
Pigweed plant response rating [4, 15]: 100
Pigweed plant response rating [4, 16]: 100
Plant response rating, Pigweed ([4]; 13 to 15 days): 100
Pigweed plant response rating [4, 21]: 100
Plant response rating, Sedge, Umbrella [5]: 95
Morningglory plant response rating [6, 17]: 100
Morningglory plant response rating [6, 18]: 80
Morningglory plant response rating [7, 15]: 80
Morningglory plant response rating [7, 16]: 100
Plant response rating, Morningglory ([7]; 13 to 15 days): 100
Morningglory plant response rating [7, 21]: 100
Velvetleaf plant response rating [8, 17]: 100
Velvetleaf plant response rating [8, 18]: 70
Morningglory plant response rating (0 to 100 scale) [9, 22]: 100
Morningglory plant response rating [9, 20]: 100
Galium plant response rating [10, 15]: 90
Galium plant response rating [10, 16]: 95
Plant response rating, Galium ([10]; 13 to 15 days): 95
Galium plant response rating [10, 21]: 100
Foxtail, Giant plant response rating [11, 17]: 90
Foxtail, Giant plant response rating [11, 18]: 90
Soybean plant response rating [12, 15]: 20
Soybean plant response rating [12, 16]: 70
Plant response rating, Soybean ([12]; 13 to 15 days): 85
Soybean plant response rating [12, 21]: 95
Pigweed plant response rating (0 to 100 scale) [13, 22]: 100
Pigweed plant response rating [13, 20]: 100
Corn plant response rating [14, 17]: 90
Corn plant response rating [14, 18]: 60
